Experimental findings from PubChem BioAssay (NCI) are described below.

What all share (experiment): NCI tumour cell line growth inhibition, 48 h
In experiment [1] the test system is MOLT-4 leukemia.
Experiment [2] deals with HCT-116 colon.
In experiment [3] the test system is A549 NSCLC.
The test system of experiment [4] is OVCAR-3 ovarian.
The test system of experiment [5] is 786-0 renal.
Experiment [6] relates to T-47D breast.
The test system of experiment [7] is M14 melanoma.
Experiment [8] concerns OVCAR-5 ovarian.
Experiment [9] deals with RPMI-8226 leukemia.
In experiment [10] the test system is A498 renal.

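96-well plates; 48 h exposure; 5 concentrations. Endpoints by linear interpolation between flanking doses. Not reached: highest tested concentration assigned. Here, GI50 denotes the concentration required for 50% inhibition of growth. TGI: total growth inhibition.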 Where only a bound is given, the exact number is not on record here.

Take `Oc1cc2c(cc1C(c1ccc3c(c1)OCO3)N1CCN(C(c3ccc4c(c3)OCO4)c3cc4c(cc3O)OCO4)CC1)OCO2` (stereo not given): the TGI in experiment [1] is 28.4 µM; in [2], 29.1 µM; in experiment [3], greater than 100 µM; in [4] it was 30.8 µM; in [5] it was 25.8 µM; in [6], 34.6 µM. Besides, the figures for the TGI in experiment [7] and in [8] were 27.5 µM and 32.6 µM, respectively.

As to `Cc1cc(Cl)cc2c1NC(=O)C2(O)CC(=O)c1ccc(F)cc1` (stereo not given), the TGI is greater than 100 µM in [2]; 81.1 µM in experiment [3]; 96.5 µM in [4]; 65.3 µM in [9]; greater than 100 µM in [5]; greater than 100 µM in [7]. In experiment [8], this molecule had a TGI greater than 100 µM.

Take `CN(C)CCC(=O)N1CCc2c([nH]c3ccccc23)C1c1cccnc1` (stereo not given): the TGI in experiment [1], in experiment [2], in [3], in experiment [10], in experiment [4] and in experiment [9] was greater than 100 µM in each case. The TGI in experiment [5], in experiment [7] and in experiment [8] was greater than 100 µM in each case.

Take `CC1NCCc2c1[nH]c1cc(O)ccc21` (stereo not given): the TGI in experiment [1], in experiment [2], in experiment [3], in experiment [10], in [4] and in experiment [9] was greater than 100 µM each time. Also, the TGI in experiment [5], in experiment [7] and in [8] was greater than 100 µM each time.

Turning to `CCOC(=O)N1CCc2cc(OC)c(OC)cc2/C1=C/c1ccc(OC)c(OC)c1`, the TGI in experiment [1] was greater than 100 µM; in [2], greater than 100 µM; in experiment [3], greater than 100 µM; in experiment [10], greater than 100 µM; in experiment [4], greater than 100 µM; in experiment [9] it was 56.5 µM. The TGI in experiment [5], in experiment [7] and in experiment [8] was greater than 100 µM each time.

As to `O=C(Nc1ccccc1[N+](=O)[O-])C(=O)C(C(=O)c1ccccc1-c1ccccc1)C1OC(=O)c2ccccc21` (stereo not given), the TGI in experiment [1] was 85.4 µM; in experiment [2] it was 38.4 µM; in experiment [3], 72.6 µM; in [10] it was 37.8 µM; in experiment [4], 28 µM; in experiment [9] it was 78.3 µM. The TGI in experiment [5] stood at 28.6 µM; in experiment [7], 28.9 µM; in experiment [8] it was 36.8 µM.

For `O=C1[C@@H]2C(c3ccncc3)=NO[C@@H]2C(=O)N1c1ccc(Cc2ccc(N3C(=O)[C@H]4C(c5ccncc5)=NO[C@H]4C3=O)cc2)cc1`, the TGI in experiment [1], in experiment [3], in [10], in experiment [4], in experiment [9] and in [5] was greater than 100 µM throughout. Further, the TGI in experiment [7] and in experiment [8] was greater than 100 µM in each case.

`C/C(CC(=O)Nc1ccccc1)=N\NC(N)=S`: the TGI in [1], in experiment [2], in [3], in experiment [4], in experiment [9] and in [5] was greater than 100 µM in each case. Moreover, the TGI in [7] and in experiment [8] was greater than 100 µM each time.

Consider `Cc1cccc(C)c1NC(=O)CCCC(=O)C(C#N)c1ccc(Cl)cc1` (stereo not given), for which the TGI in experiment [1], in experiment [2], in [3], in experiment [10], in experiment [4] and in experiment [9] was greater than 100 µM each time. Further, the TGI in [5], in experiment [7] and in [8] was greater than 100 µM throughout.

On to `C=C[Si](C)(C)COC(=O)/C(C#N)=C/C=C/c1ccccc1`, for which the TGI in [1], in [2], in experiment [3], in experiment [4], in experiment [9] and in experiment [5] was greater than 100 µM each time. Moreover, the TGI in [7] and in [8] was greater than 100 µM each time.

For `Cc1ccc(S(=O)(=O)N[C@@H](Cc2ccccc2)C(=O)CCl)cc1`, the GI50 in [1] was 1.99 µM; in [2], 12.9 µM; in experiment [3], 42.6 µM; in [4] it was 9.5 µM; in experiment [5] it was 10.6 µM; in experiment [6], 21.4 µM. Moreover, the values for the GI50 in [7] and in [8] were 19.9 µM and 13.7 µM, respectively. Besides, the TGI in experiment [1] is greater than 100 µM; in experiment [2], greater than 100 µM; in experiment [3] it was greater than 100 µM; in experiment [4], 24.2 µM; in [5], 27 µM; in [6], greater than 100 µM. The values for the TGI in experiment [7] and in [8] were 63.1 µM and 65.9 µM, respectively.

Regarding `CC1(C)Cc2nnsc2C2=C1C(=O)CCS2`, the TGI in experiment [1], in [3], in [4], in [9], in experiment [5] and in experiment [7] was greater than 100 µM in each case. In addition, the TGI in [8] was greater than 100 µM.

Consider `NCCn1cnc2nc(NC(=O)c3ccccc3)[nH]c(=O)c21`, for which the TGI in experiment [1], in experiment [2], in experiment [3], in experiment [10], in [4] and in experiment [9] was greater than 100 µM in each case. For the same molecule, the TGI in experiment [5] and in [8] was greater than 100 µM each time.

As to `CCOC(=O)C1=C(C)N(NC(=O)OC)C2(N)N(NC(=O)OC)C(C)=C(C(=O)OCC)C12C#N` (stereo not given), the TGI in experiment [1], in experiment [2], in [3], in [10], in experiment [4] and in experiment [9] was greater than 100 µM each time. Also, the TGI in experiment [5], in [7] and in [8] was greater than 100 µM throughout.

For `CCOc1ccc2c(c1)C(=O)c1c-2n(CCCN)c(=O)c2cc([N+](=O)[O-])ccc12`, the GI50 in experiment [2] was 0.0638 µM; in experiment [3], 0.137 µM; in [10] it was 0.679 µM; in experiment [4], 0.448 µM; in experiment [9], 0.0443 µM; in experiment [5], 0.0291 µM. Further, the GI50 is 0.0343 µM in experiment [7] and 0.324 µM in experiment [8]. For the same molecule, the TGI stood at 0.543 µM in experiment [2]; 1.13 µM in experiment [3]; 2.06 µM in experiment [10]; 1.75 µM in [4]; 0.302 µM in experiment [9]; 0.214 µM in experiment [5]. The TGI is 1.19 µM in [7] and 1.82 µM in experiment [8].

Turning to `CC(C)(C)c1cc(-c2c3nc(c(-c4cc(C(C)(C)C)cc(C(C)(C)C)c4)c4ccc([nH]4)c(-c4cc(C(C)(C)C)cc(C(C)(C)C)c4)c4nc(c(-c5cc(C(C)(C)C)cc(C(C)(C)C)c5)c5ccc2[nH]5)C=C4)C=C3)cc(C(C)(C)C)c1`, the TGI in experiment [1], in experiment [2], in experiment [3], in [10], in experiment [4] and in [9] was greater than 100 µM each time. Besides, the TGI in [5], in experiment [7] and in [8] was greater than 100 µM in each case.

For `NC1=NCC(c2ccccn2)C1c1ccc(F)cc1` (stereo not given), the TGI in [1], in experiment [2], in experiment [3], in experiment [10], in experiment [4] and in experiment [9] was greater than 100 µM each time. Also, the TGI in [5], in [7] and in [8] was greater than 100 µM each time.

As for `C/C=C/C=C/CCCCCCCCCCCCC[C@]1(OC)C=CC(CC(=O)OC)OO1` (stereo not given in full), the GI50 is 19.9 µM in [1], 35 µM in experiment [3], 22.1 µM in experiment [4] and 17.1 µM in [5]. The TGI is 48.7 µM in experiment [1]; 29.6 µM in experiment [2]; greater than 100 µM in [3]; 42.2 µM in experiment [4]; 49.2 µM in [9]; 33.4 µM in [5]. The molecule also displayed a TGI in [7] of 31.9 µM.

Regarding `COc1ccc(/C(=C\c2cc(OC)c(OC)c(OC)c2)C(=O)O)cc1`, the TGI is 86.3 µM in experiment [1]; greater than 100 µM in [2]; greater than 100 µM in [3]; 53.3 µM in [10]; greater than 100 µM in experiment [4]; 84.6 µM in experiment [9]. In addition, the TGI in [5] and in experiment [7] was greater than 100 µM each time.

Take `C=CCN(N=O)C(=O)N(CCCCC(NC(C)=O)C(=O)NCc1ccccc1)Cc1ccccc1` (stereo not given): the TGI in experiment [1] is 45.4 µM; in experiment [3], greater than 100 µM; in experiment [10] it was greater than 100 µM; in experiment [4] it was greater than 100 µM; in [9], 41.9 µM; in experiment [5], greater than 100 µM. Moreover, the TGI in experiment [7] was 62.4 µM; in [8], greater than 100 µM.

`COC(=O)[C@@H]1[C@H](O)[C@H](C)[C@H](O)[C@H](C)/C=C\C=C(C)C(=O)Nc2c(C)c(OC(C)=O)c3c(c2O)C(=O)C(C)=C2OCOC(=C23)C(C)=C[C@@](C)(O)[C@H](O)[C@@H](C)[C@H]1OC(C)=O`: the TGI in experiment [1] is greater than 100 µM; in [2], 48.6 µM; in [9], 56.9 µM; in experiment [5] it was greater than 100 µM; in experiment [7], greater than 100 µM; in experiment [8], greater than 100 µM.

`Cc1ccccc1NC(=O)C(=O)CC(=O)C1CCOC1=O` (stereo not given): the TGI in experiment [2], in experiment [3], in experiment [10], in experiment [4], in experiment [9] and in experiment [5] was greater than 100 µM in each case. Also, the TGI in experiment [7] and in experiment [8] was greater than 100 µM each time.

Take `COc1cc(/C=C2\NC(=S)C3Cc4c(OC)c(C)c(OC)c(OC)c4C2N3C)c(OC)c(C)c1OC` (stereo not given): the TGI in [1], in [2], in experiment [3], in experiment [10], in experiment [4] and in experiment [9] was greater than 100 µM each time. For the same molecule, the TGI in experiment [5], in [7] and in experiment [8] was greater than 100 µM throughout.

Regarding `Cc1cc(S(=O)(=O)Nc2nc3ccccc3[nH]2)c(SCc2ccccc2)cc1Cl`, the GI50 in experiment [1] was 36.4 µM; in experiment [2] it was 51.6 µM; in experiment [3] it was greater than 100 µM; in experiment [10] it was greater than 100 µM; in [4], 14.2 µM; in experiment [9] it was 28.9 µM. The GI50 was 62.9 µM in [5], greater than 100 µM in experiment [7] and greater than 100 µM in [8]. In addition, the TGI in [1] was 85.6 µM; in experiment [2], greater than 100 µM; in [3], greater than 100 µM; in experiment [10] it was greater than 100 µM; in experiment [4], 58.4 µM; in [9], greater than 100 µM. The TGI in [5], in experiment [7] and in experiment [8] was greater than 100 µM each time.

`CN(C)CCC(/C=C/c1ccccc1)=N\Nc1ccc(Cl)cc1`: the TGI in [1] was found to be 5.43 µM; in [2], 13.7 µM; in [3], 7.34 µM; in [10], 21.8 µM; in experiment [4] it was 22.5 µM; in experiment [9] it was 4.69 µM. The TGI in [5] came to 6.26 µM; in experiment [7], 12.5 µM; in [8], 2.89 µM.

As to `Cc1cc(Cl)ccc1N1C(=O)C(=O)C(c2nc3ccccc3o2)C(=O)C1=O`, the TGI in experiment [1], in experiment [2], in experiment [3], in [10], in experiment [4] and in [5] was greater than 100 µM in each case. Besides, the TGI in experiment [7] is greater than 100 µM.

Take `Cc1nnc2n1N=C(c1ccc(-c3ccc([N+](=O)[O-])cc3)o1)CS2`: the TGI in experiment [1], in experiment [2], in [3], in experiment [4], in [9] and in experiment [5] was greater than 100 µM in each case. In addition, the TGI in experiment [7] and in [8] was greater than 100 µM throughout.
